Data taken from patent publication US6372717B1, “Synthetic peptides and their use in cosmetic or dermopharmaceutical compositions” (Sederma S.A., priority 1999, dated 2002).

Test system: human skin
Assay: activity by topical application
Format: in vivo
Excerpt: The object of the present invention is the discovery that this peptide, and above all the lipophile derivatives of the peptide, have a calming, antalgic activity when applied to the human skin in a suitable cosmetic or dermopharmaceutical preparation.

N=C(N)NCCC[C@H](NC(=O)[C@@H](N)Cc1ccc(O)cc1)C(=O)O [H-L-Tyr-L-Arg-OH]
activity by topical application: only a slight activity
